Results on four compounds are retold here after ChEMBL document CHEMBL3585312, “Anti-MRSA activity of isoplagiochin-type macrocyclic bis(bibenzyl)s is mediated through cell membrane damage” (2015).

In general, MIC refers to the lowest concentration that inhibits growth of the organism. A high value points to weaker potency.

Values after ≈ are worked out from the molar mass of the structure shown. Active and inactive are the calls of the source. The calls are words filed in the database; no cut-off is given here.

Assay type in all cases: functional
Assay [1] has as its system Staphylococcus aureus. Put plainly: Antimicrobial activity against methicillin-resistant Staphylococcus aureus N315 after 24 hrs by broth microdilution method. To be noted: N315, 24 h. (Dilution methods test growth across graded concentrations, often in twofold steps.)
In assay [2] the test system is Staphylococcus aureus. Put plainly: Induction of methicillin-resistant Staphylococcus aureus N315 membrane damage using ethidium bromide assessed as fluorescence intensity at 100 ug/ml by ethidium bromide inflow assay.
For assay [3], the system named is Staphylococcus aureus. Put plainly: Induction of methicillin-resistant Staphylococcus aureus N315 membrane damage using ethidium bromide assessed as fluorescence intensity at 100 ug/ml by ethidium bromide outflow assay.
The subject of assay [4] is Staphylococcus aureus. Put plainly: Induction of methicillin-resistant Staphylococcus aureus N315 membrane damage assessed as increase in Na+ concentration at 10 ug/ml after 90 mins by coupled plasma optical emission spectrometry.
Assay [5] has as its system Staphylococcus aureus. Description: Induction of methicillin-resistant Staphylococcus aureus N315 membrane damage assessed as decrease in K+ concentration at 10 ug/ml after 90 mins by coupled plasma optical emission spectrometry.
In assay [6] the test system is Staphylococcus aureus. Put plainly: Induction of methicillin-resistant Staphylococcus aureus N315 membrane damage using ethidium bromide assessed as fluorescence intensity at 10 ug/ml by ethidium bromide outflow assay.
The test system of assay [7] is Staphylococcus aureus. Description: Induction of methicillin-resistant Staphylococcus aureus N315 membrane damage using ethidium bromide assessed as fluorescence intensity at 10 ug/ml by ethidium bromide inflow assay.

In the assay on Staphylococcus aureus [1], `Oc1ccc2c(c1)CCc1ccccc1-c1cccc(c1)CCc1ccc-2c(O)c1` displayed an MIC of 2 µg/mL (≈ 5.1 µM).

For the compound `Oc1ccc2c(c1)CCc1ccc(cc1)-c1cccc(c1)CCc1ccc-2c(O)c1`, the result with Staphylococcus aureus [2], in the assay with Staphylococcus aureus [3], with Staphylococcus aureus [4] and in the assay with Staphylococcus aureus [5] was inactive.

With `Oc1ccc2c(c1)CCc1ccc(cc1)Oc1cccc(c1)CCc1ccc-2c(O)c1`, the result in the assay on Staphylococcus aureus [6] and in the assay on Staphylococcus aureus [7] was Active.

`Oc1ccc2c(c1)CCc1cccc(c1)-c1cccc(c1)CCc1ccc-2c(O)c1`: the outcome in the assay on Staphylococcus aureus [6], in the assay with Staphylococcus aureus [7], with Staphylococcus aureus [4] and in the assay with Staphylococcus aureus [5] was Active. In addition, it took 0.5 µg/mL (≈ 1.27 µM) to inhibit growth in the assay on Staphylococcus aureus [1] (MIC).
